Data taken from patent US5110796A, “Prophylactic and therapeutic agents for cataracts” (priority 1988, dated 1992).
Where a name gives a salt, the structure may show the parent alone.

Columns and labels:
X-ray induced cataracts = tested on: X-ray induced cataracts
Procedure: Four-week old SLC Wistar rats are divided into three groups having ten animals in each group; the first group is a normal control group. The second group is an X-ray irradiated control group which is administered intraperitoneally 1 ml/kg of physiological saline solution three times a week after X-ray irradiation. For the third group, 20 mg/kg of glutathione monoisopropyl ester sulfate is administered intraperitoneally three times a week after X-ray irradiation. X-ray irradiation is carried out by irradiating the cephalic portion of conscious rats at 1,000 rad.
After X-ray irradiation, the lens are monitored every two weeks for opacity with a slit lamp. […] When the conditions of lens of the X-ray irradiated control group (the second group) reaches level IV or more (at 28 weeks), the tests are finished. Then the lens are extracted and measured for biochemical parameters [amounts of nonprotein-SH (Ellman's method), amounts of Na^+ /K^+ and Ca^++ (Atomic absorption method)].

mice = conditions: intraperitoneal injection to mice

SMILES: CC(C)OC(=O)CNC(=O)[C@H](CS)NC(=O)CC[C@H](N)C(=O)O [glutathione monoisopropyl ester sulfate, isopropylγ-L-glutamyl-L-cysteinylglycinate]
- share of the group with II grade lens score (seven grades I to VII, clear to opacitas) (X-ray induced cataracts; 20 mg/kg i.p. three times a week after 1,000 rad X-ray irradiation, 28 weeks, in the X-ray irradiated control the V grade is greater than 50%): greater than 50%
- inhibiting action of cataracts (X-ray induced cataracts; 20 mg/kg i.p. three times a week after X-ray irradiation, rats): outstanding inhibiting action of cataracts
- acute toxicity (LD50) (mice): approximately 5.3 g/kg
